From US20210009542A1 (Calico Life Sciences LLC, priority 2018, published 2021)
Like-named read-outs stand apart in the source and are kept apart here.

Assays:
[1] = target: T1, His tagged PTPN2 (TC45) protein (Homo sapiens, UniProt P17706); test: Mobility shift assay (MSA) for potency of PTPN2 inhibitors; format: biochemical; settings: read-out: PTPN2 MSA IC50
T1 construct: made in house
T1 sequence (P17706 with tags, fused parts or gaps isoform P17706-2): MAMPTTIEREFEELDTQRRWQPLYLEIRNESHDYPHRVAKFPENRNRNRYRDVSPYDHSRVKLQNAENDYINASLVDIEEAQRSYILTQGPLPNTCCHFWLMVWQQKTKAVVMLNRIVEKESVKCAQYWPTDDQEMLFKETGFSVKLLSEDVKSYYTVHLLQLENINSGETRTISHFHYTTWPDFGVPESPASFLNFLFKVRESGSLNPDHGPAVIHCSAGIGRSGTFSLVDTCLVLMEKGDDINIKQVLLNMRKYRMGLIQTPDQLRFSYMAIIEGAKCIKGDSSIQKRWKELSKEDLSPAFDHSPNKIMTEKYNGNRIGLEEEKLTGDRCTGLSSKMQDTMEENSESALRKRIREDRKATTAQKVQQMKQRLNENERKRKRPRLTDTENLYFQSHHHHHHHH
Summary of the method: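 IC50 values were derived from % inhibition of substrate conversion, measured by microfluidic mobility shift (ex 488/em 530) after quenching. The fluorescent phosphotyrosine insulin-receptor peptide ([…]) reacted for 10 min at room temperature with 0.5 nM His-tagged TC45 PTPN2 that had been preincubated 10 min with compound (12 points, 1:3). Buffer was HEPES pH 7.5 with EGTA, EDTA, Tween 20 and DTT.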

[2] = tested on: B16F10 mouse melanoma cells; test: B16F10 IFNγ-induced cellular growth inhibition assay; format: cell-based; settings: Mus musculus, B16-F10, 33 μM compound
Description: B16F10 mouse melanoma cells (ATCC Cat ^#CRL-6475, Manassas, Va.) were seeded at a density of 500 cells per well in a 384-well clear bottom plate (Corning Cat^# 3765, Corning, N.Y.) in 25 μL total volume of DMEM+10% FBS (Sigma Cat ^#D6429 and Sigma Cat ^#F4135, St. Louis, Mo.). Cells were allowed to adhere overnight at 37° C.+5% CO2. On the following day, 12.5 μL of mouse IFNγ (RD systems Cat485-MI/CF, Minneapolis, Minn.) was added to half of the plate (columns 13-24) at a concentration of 2 ng/mL for a final assay concentration of 0.5 ng/mL of IFNγ. Media only (12.5 μL of DMEM+10% FBS) was added to the remainder of the plate (columns 1-12). Next, compounds resuspended in DMSO (Sigma Cat ^#D2650) at 100 mM were diluted in semi-log dilutions in DMSO ranging from 100 mM to 0.001 mM and DMSO only controls were included. The compound/DMSO dilutions were further diluted 1:250 in DMEM+10% FBS, and 12.5 μL of these dilutions were added in triplicates to cells of both treatment arms (with and without IFNγ). Final compound concentrations ranged from 100 μM to 0.001 μM with a final DMSO concentration of 0.1%. Compounds were only dosed in the inner 240 wells, avoiding the outer 2-well perimeter of the plate to minimize edge effects. Finally, the plate was loaded into an IncuCyte® S3 Live Cell Analysis System (Essen Bioscience-Sartorius, Ann Arbor, Mich.) maintained in a 37° C.+5% CO2 incubator, allowed to equilibrate for 2 hours, and imaged every 6 hours for 5 days. Confluence over time for compound dilutions in the presence and absence of IFNγ was measured. Growth inhibition values were obtained when the “DMSO/no IFNγ” control reached confluence >95%. At these time points, the percent growth inhibition of each compound at the indicated concentration was calculated relative to the “DMSO/with IFNγ” control.

[3] = +0.5 ng/mL IFNγ, relative to DMSO control, read-out: % B16F10 growth inhibition (+0.5 ng/mL IFNγ) @ 33 μM
[4] = no IFNγ, read-out: % B16F10 growth inhibition (no IFNγ) @ 33 μM

SMILES | IC50 [1] | inhibition at 33 µM [2, 3] | inhibition at 33 µM [2, 4]
O=C1CN(c2c(O)cc3ccc(NCCC(F)(F)F)cc3c2F)S(=O)(=O)N1 [Compound 169, 5-{1-fluoro-3-hydroxy-7-[(3,3,3-trifluoropropyl)amino]naphthalen-2-yl}-1λ^6,2,5-thiadiazolidine-1,1,3-trione] | 1 to 10 nM | > 90% | < 25%
COC(C)(C)CCOc1ccc2cc(O)c(N3CC(=O)NS3(=O)=O)c(F)c2c1 [Compound 170, 5-[1-fluoro-3-hydroxy-7-(3-methoxy-3-methylbutoxy)naphthalen-2-yl]-1λ^6,2,5-thiadiazolidine-1,1,3-trione] | < 1 nM | 60 to 90% | < 25%
N#CCCCNc1ccc2cc(O)c(N3CC(=O)NS3(=O)=O)c(F)c2c1 [Compound 174, 4-{[8-fluoro-6-hydroxy-7-(1,1,4-trioxo-1λ^6,2,5-thiadiazolidin-2-yl)naphthalen-2-yl]amino}butanenitrile] | 1 to 10 nM | > 90% | < 25%
CC(C)(CN)CCOc1ccc2cc(O)c(N3CC(=O)NS3(=O)=O)c(F)c2c1 [Compound 176, 5-[7-(4-amino-3,3-dimethylbutoxy)-1-fluoro-3-hydroxynaphthalen-2-yl]-1λ^6,2,5-thiadiazolidine-1,1,3-trione] | 1 to 10 nM | > 90% | < 25%
O=C1CN(c2c(O)cc3ccc(NCCN4CCC4)cc3c2F)S(=O)(=O)N1 [Compound 177, 5-(7-{[2-(azetidin-1-yl)ethyl]amino}-1-fluoro-3-hydroxynaphthalen-2-yl)-1λ^6,2,5-thiadiazolidine-1,1,3-trione] | 1 to 10 nM | > 90% | < 25%
O=C1CN(c2c(O)cc3ccc(OC4CN(S(=O)(=O)C5CC5)C4)cc3c2F)S(=O)(=O)N1 [Compound 178, 5-(7-{[1-(cyclopropanesulfonyl)azetidin-3-yl]oxy}-1-fluoro-3-hydroxynaphthalen-2-yl)-1λ^6,2,5-thiadiazolidine-1,1,3-trione] | 1 to 10 nM | 60 to 90% | < 25%
COCCNc1ccc2cc(O)c(N3CC(=O)NS3(=O)=O)c(F)c2c1 [Compound 179, 5-{1-fluoro-3-hydroxy-7-[(2-methoxyethyl)amino]naphthalen-2-yl}-1λ^6,2,5-thiadiazolidine-1,1,3-trione] | 10 to 100 nM | > 90% | < 25%
O=C1CN(c2c(O)cc3ccc(OCCC(F)(F)F)cc3c2F)S(=O)(=O)N1 [Compound 180, 5-[1-fluoro-3-hydroxy-7-(3,3,3-trifluoropropoxy)naphthalen-2-yl]-1λ^6,2,5-thiadiazolidine-1,1,3-trione] | 1 to 10 nM | 60 to 90% | < 25%
N#CC1(CNc2ccc3cc(O)c(N4CC(=O)NS4(=O)=O)c(F)c3c2)CC1 [Compound 181, 1-({[8-fluoro-6-hydroxy-7-(1,1,4-trioxo-1λ^6,2,5-thiadiazolidin-2-yl)naphthalen-2-yl]amino}methyl)cyclopropane-1-carbonitrile] | 1 to 10 nM | 60 to 90% | < 25%
Nc1ccc(CS(=O)(=O)N2CC=C(c3ccc4cc(O)c(N5CC(=O)NS5(=O)=O)c(F)c4c3)C2)cc1 [Compound 184, 5-(7-{1-[(4-aminophenyl)methanesulfonyl]-2,5-dihydro-1H-pyrrol-3-yl}-1-fluoro-3-hydroxynaphthalen-2-yl)-1λ^6,2,5-thiadiazolidine-1,1,3-trione] | < 1 nM | 25 to 59% | < 25%
CC1(CCOc2ccc3cc(O)c(N4CC(=O)NS4(=O)=O)c(F)c3c2)CC1 [Compound 193, 5-{1-fluoro-3-hydroxy-7-[2-(1-methylcyclopropyl)ethoxy]naphthalen-2-yl}-1λ^6,2,5-thiadiazolidine-1,1,3-trione] | < 1 nM | 25 to 59% | < 25%
Nc1ccccc1CS(=O)(=O)N1CC=C(c2ccc3cc(O)c(N4CC(=O)NS4(=O)=O)c(F)c3c2)C1 [Compound 195, 5-(7-{1-[(2-aminophenyl)methanesulfonyl]-2,5-dihydro-1H-pyrrol-3-yl}-1-fluoro-3-hydroxynaphthalen-2-yl)-1λ^6,2,5-thiadiazolidine-1,1,3-trione] | < 1 nM | 60 to 90% | < 25%
O=C1CN(c2c(O)cc3ccc(OCCF)cc3c2F)S(=O)(=O)N1 [Compound 198, 5-[1-fluoro-7-(2-fluoroethoxy)-3-hydroxynaphthalen-2-yl]-1λ^6,2,5-thiadiazolidine-1,1,3-trione] | 1 to 10 nM | 60 to 90% | < 25%
CC(C)CCNc1ccc2cc(O)c(N3CC(=O)NS3(=O)=O)c(F)c2c1 [Compound 200, 5-{1-fluoro-3-hydroxy-7-[(3-methylbutyl)amino]naphthalen-2-yl}-1λ^6,2,5-thiadiazolidine-1,1,3-trione] | 1 to 10 nM | > 90% | < 25%
CC(C)CNc1ccc2cc(O)c(N3CC(=O)NS3(=O)=O)c(F)c2c1 [Compound 201, 5-{1-fluoro-3-hydroxy-7-[(2-methylpropyl)amino]naphthalen-2-yl}-1λ^6,2,5-thiadiazolidine-1,1,3-trione] | 1 to 10 nM | 60 to 90% | < 25%
N#CCOc1ccc2cc(O)c(N3CC(=O)NS3(=O)=O)c(F)c2c1 [Compound 203, {[8-fluoro-6-hydroxy-7-(1,1,4-trioxo-1λ^6,2,5-thiadiazolidin-2-yl)naphthalen-2-yl]oxy}acetonitrile] | 1 to 10 nM | 60 to 90% | < 25%
CC(C)CCOc1ccc2cc(O)c(N3CC(=O)NS3(=O)=O)c(F)c2c1 [Compound 204, 5-[1-fluoro-3-hydroxy-7-(3-methylbutoxy)naphthalen-2-yl]-1λ^6,2,5-thiadiazolidine-1,1,3-trione] | < 1 nM | 60 to 90% | < 25%
COc1ccc2cc(O)c(N3CC(=O)NS3(=O)=O)c(F)c2c1F [Compound 205, 5-(1,8-difluoro-3-hydroxy-7-methoxynaphthalen-2-yl)-1λ^6,2,5-thiadiazolidine-1,1,3-trione] | 10 to 100 nM | 25 to 59% | < 25%
O=C1CN(c2c(O)cc3ccc(C4CN(S(=O)(=O)C5CC5)C4)cc3c2F)S(=O)(=O)N1 [Compound 206, 5-{7-[1-(cyclopropanesulfonyl)azetidin-3-yl]-1-fluoro-3-hydroxynaphthalen-2-yl}-1λ^6,2,5-thiadiazolidine-1,1,3-trione] | 1 to 10 nM | 60 to 90% | < 25%
O=C1CN(c2c(O)cc3ccc(C4CN(C(=O)C5CC5)C4)cc3c2F)S(=O)(=O)N1 [Compound 207, 5-{7-[1-(cyclopropanecarbonyl)azetidin-3-yl]-1-fluoro-3-hydroxynaphthalen-2-yl}-1λ^6,2,5-thiadiazolidine-1,1,3-trione] | 1 to 10 nM | 25 to 59% | < 25%
N#C/C=C/c1ccc2cc(O)c(N3CC(=O)NS3(=O)=O)c(F)c2c1 [Compound 208, (2E)-3-[8-fluoro-6-hydroxy-7-(1,1,4-trioxo-1λ^6,2,5-thiadiazolidin-2-yl)naphthalen-2-yl]prop-2-enenitrile] | 1 to 10 nM | < 25% | < 25%
